Consider three compounds from patent publication US11406649B2, “Treatment of upper aerodigestive tract disorders and cough” (IVIEW THERAPEUTICS, INC., priority 2018, dated 2022).

Converted amounts (≈) assume the structure as drawn. “Also recorded” adds a separate entry of the source.

For data set [1], the system named is dorsal surface of the tongue. As to conditions: average of 6 subjects; cited from earlier work.
In a further data set the test system is oropharynx and esophagus. The data set can be described thus: Sensory events and cold discomfort of compounds on throat, chest and body.
For a further data set, the system named is Oral Cavity and Pharynx. The data set is described as follows: Sensory qualities of compounds in syrup applied to base of tongue of volunteers. It is filed as in vivo, human. On the procedure: The DIPA compounds was 5 mg/mL in cherry-flavored syrup in a volume of 0.8 mL per dose. The sensory effect were recorded every 5 min for 1 hr.
Tests were on four volunteers, with 3 to 5 trials per substance. Compounds were prepared in cherry-flavored syrup at 5 mg/mL and administered ˜0.8 mL per dose with a 2 mL plastic vial to the base of the tongue. The subjects asked to rate the sensations for cooling intensity, cold discomfort and adverse taste.
The concentration of the DIPA compounds was 5 mg/mL in cherry-flavored syrup administered in a volume of 0.8 mL per dose. The sensory effect were recorded every 5 min for 1 hr.

Data set [2] relates to acid-induced swallowing movements. The data set is described as follows: Suppression of acid-induced swallowing movements in the anesthetized rat. The format is in vivo. The source says: A principal endogenous irritant in the linings of the upper aerodigestive tract is hydrochloric acid. Acid stimulations of the mucosa of the pharynx will elicit reflex swallowing. […] In a rat animal model, solutions of organic acids such as acetic acid and citric acid were effective in eliciting swallowing [Kajii et al., Sour taste stimulation facilitates reflex swallowing from the pharynx and larynx in the rat Physiology & Behavior 77: 321-325, 2002]. These methods for measuring sensory responses to acid can be adapted for screening the activity of DIPA-1-9. An agent that stimulates swallowing or an agent that suppress the acid challenge may then have utility in relieving dysphagia or the discomfort of heartburn, respectively. Preliminary experiments were conducted at the Pavlov Institute of Physiology, St. Petersburg, Russia, using adult male Wistar rats (see Table 11) and Wei (US 0.2015/0111852 A1). Swallowing movements was identified as the electromyogram activity and could also be visualized as laryngeal movement. Work is in progress to get more results for DIPA-1-9.

Data set [3] is described as follows: Flux through excised hairless mouse skin in vitro. It is filed as in vitro ADME. Here is the method: Test chemicals dissolved in a gel were placed in an incubation well for 8 hr and the permeated amount of the chemical measured by a high pressure liquid chromatograph equipped with a refractive detector. These tests were conducted by Prof Choi of Chosun University, Korea. The flux of DIPA-1-7 was ˜5× greater than DIPA-1-9.
To further study the skin permeation of DIPA compounds, tests were conducted on the flux of DIPA-1-7 and DIPA-1-9 through excised hairless mouse skin in vitro. These tests were conducted by Prof Choi, Dean of the School of Pharmacy of Chosun University, Korea, and the results shown in (FIG. 5).

A further data set concerns the target cloned hTRPM8 channel (Homo sapiens (Human), UniProt Q7Z2W7). The data set is described as follows: TRPM8 agonist activity, Fluo-8 calcium FLIPR assay (ChanTest). It is filed as cell-based. On the procedure: In the first set of data, the potency and in vitro effects of test compounds were evaluated on cloned hTRPM8 channel (encoded by the human TRPM8 gene, expressed in CHO cells) using a Fluo-8 calcium kit and a Fluorescence Imaging Plate Reader (FLIPR^TETRA™) instrument. […] Test solutions were in a HEPES-buffered saline, in 384-well plates, and placed into the FLIPR instrument (Molecular Devices Corporation, Union City, Calif., USA). […] The test cells were Chinese Hamster Ovary (CHO) cells stably transfected with human TRPM8 cDNAs. Concentration-response data were analyzed via FLIPR Control software) and fitted to a Hill equation for the EC50.

A further data set addresses TRPM8 (Mus musculus (Mouse), UniProt Q8R4D5). The data set is described as follows: TRPM8 Fura-2 calcium assay in transfected CHO cells (Andersson et al.). The format is cell-based. The following applies: FIG. 4. Here is the method:
FIG. 4. is a graph of fluorescence response (Δ ratio 340/380) in TRPM8 transfected cells as a function of the logarithm of the concentration of the test compound, expressed in μM, for DIPA-1-7 (black circle), 3,4-7 (open squares), or 3,4-6 (open triangles). The assays were conducted by Andersson et al. of King's College, London, UK, using his methods described in “Modulation of the cold-activated channel TRPM8 by lysophospholipids and polyunsaturated fatty acids. Journal Neuroscience 27 (12): 3347-3355, 2007.
In a second set, tests were made on “mixed” isopropyl-sec-butylphosphorylhexane and heptane analogs described as 3,4-6 and 3,4-7 in Table 2, and results shown in FIG. 4. […] Emission intensity from cells was measured for 90 sec, at every 4 or 5 sec, using excitation wavelengths of 340 and 380 nm and an emission of 520 nm. Fluorescence emission intensity ratios at 340 nm/380 nm excitation (R, in individual cells) were recorded with a FlexStation and the ImageMaster suite of software (PTI, South Brunswick, N.J.). Samples were tested in triplicate at each concentration and the averaged values analyzed by non-linear regression using an a sigmoidal function fit of the points to obtain an estimated EC50 (median effective concentration) (GraphPad Prism software, La Jolla, Calif.). […]

Data set [4] can be described thus: Water solubility of 1-dialkylphosphorylalkanes. The format is physicochemical. The following applies: water. The source says: The DIPA compounds are colorless liquids with a density less than water. These structures differ from those described by Rowsell and Spring U.S. Pat. No. 4,070,496 because '496 structures have their “head” (phosphine oxide group) covered by larger, more lipophilic groups. […] The applicant synthesized these analogs (which are achiral, by contrast to the structures of '496 which are >95% chiral). […] This increased water-solublility is striking (Table 3). […] The DIPA analogs are now mobile in the extracellular fluids and permeate between cells to access nerve endings in the stratum basale.

A further data set relates to anesthetized rat. The data set can be described thus: In vivo transdermal activity: shaking after topical application to abdominal skin of anesthetized rat. As to conditions: pure compound 20 μL on abdominal skin, counted 40 min. On the procedure: Shaking frequency was counted for 40 min after topical application.
The importance of water solubility for permeation was further illustrated in studies on the abdominal skin of anesthetized rat. […] The pharmacokinetic determinants of bioactivity are precise. Thus, for the avoidance of cold discomfort, DIPA-1-9 has to reach the receptors in the stratum basale but not “over-stimulate”.

Data set [5] deals with respiratory syncytial virus (RSV) induced cough. The data set can be described thus: Mouse cough model of respiratory syncytial virus infection. It is filed as in vivo. The following applies: 1 mg perioral per mouse, 1 hr before count.

Chain of TRPM8 (Q8R4D5 whole entry): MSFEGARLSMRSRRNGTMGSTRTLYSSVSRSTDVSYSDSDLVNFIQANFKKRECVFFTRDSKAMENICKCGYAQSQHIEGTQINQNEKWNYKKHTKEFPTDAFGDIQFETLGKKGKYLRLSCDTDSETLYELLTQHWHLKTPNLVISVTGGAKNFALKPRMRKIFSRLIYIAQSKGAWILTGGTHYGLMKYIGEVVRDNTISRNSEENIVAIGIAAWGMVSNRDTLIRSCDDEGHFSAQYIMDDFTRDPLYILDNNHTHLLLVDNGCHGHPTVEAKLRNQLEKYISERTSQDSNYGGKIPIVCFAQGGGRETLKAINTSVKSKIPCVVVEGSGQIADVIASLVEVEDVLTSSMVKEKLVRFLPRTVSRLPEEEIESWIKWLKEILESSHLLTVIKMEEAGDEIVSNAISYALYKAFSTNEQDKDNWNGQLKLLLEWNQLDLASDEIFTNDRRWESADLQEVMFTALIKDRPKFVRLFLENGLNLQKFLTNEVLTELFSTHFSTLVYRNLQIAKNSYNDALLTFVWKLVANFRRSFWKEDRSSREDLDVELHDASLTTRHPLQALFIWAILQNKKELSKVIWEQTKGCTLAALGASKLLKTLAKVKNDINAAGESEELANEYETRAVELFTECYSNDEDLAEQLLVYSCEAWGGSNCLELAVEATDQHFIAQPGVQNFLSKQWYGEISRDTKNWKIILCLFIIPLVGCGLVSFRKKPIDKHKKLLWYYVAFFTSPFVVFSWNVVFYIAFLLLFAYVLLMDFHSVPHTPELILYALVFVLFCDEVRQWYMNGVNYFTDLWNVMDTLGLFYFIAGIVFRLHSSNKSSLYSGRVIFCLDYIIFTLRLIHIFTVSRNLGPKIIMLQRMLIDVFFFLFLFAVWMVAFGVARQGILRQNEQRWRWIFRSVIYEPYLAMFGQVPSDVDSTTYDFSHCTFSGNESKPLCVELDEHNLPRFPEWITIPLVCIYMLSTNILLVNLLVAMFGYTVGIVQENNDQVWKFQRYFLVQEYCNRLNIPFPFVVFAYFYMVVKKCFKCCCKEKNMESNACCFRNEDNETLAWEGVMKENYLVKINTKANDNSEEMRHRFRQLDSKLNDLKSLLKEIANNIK
Chain of cloned hTRPM8 channel (Q7Z2W7 whole entry): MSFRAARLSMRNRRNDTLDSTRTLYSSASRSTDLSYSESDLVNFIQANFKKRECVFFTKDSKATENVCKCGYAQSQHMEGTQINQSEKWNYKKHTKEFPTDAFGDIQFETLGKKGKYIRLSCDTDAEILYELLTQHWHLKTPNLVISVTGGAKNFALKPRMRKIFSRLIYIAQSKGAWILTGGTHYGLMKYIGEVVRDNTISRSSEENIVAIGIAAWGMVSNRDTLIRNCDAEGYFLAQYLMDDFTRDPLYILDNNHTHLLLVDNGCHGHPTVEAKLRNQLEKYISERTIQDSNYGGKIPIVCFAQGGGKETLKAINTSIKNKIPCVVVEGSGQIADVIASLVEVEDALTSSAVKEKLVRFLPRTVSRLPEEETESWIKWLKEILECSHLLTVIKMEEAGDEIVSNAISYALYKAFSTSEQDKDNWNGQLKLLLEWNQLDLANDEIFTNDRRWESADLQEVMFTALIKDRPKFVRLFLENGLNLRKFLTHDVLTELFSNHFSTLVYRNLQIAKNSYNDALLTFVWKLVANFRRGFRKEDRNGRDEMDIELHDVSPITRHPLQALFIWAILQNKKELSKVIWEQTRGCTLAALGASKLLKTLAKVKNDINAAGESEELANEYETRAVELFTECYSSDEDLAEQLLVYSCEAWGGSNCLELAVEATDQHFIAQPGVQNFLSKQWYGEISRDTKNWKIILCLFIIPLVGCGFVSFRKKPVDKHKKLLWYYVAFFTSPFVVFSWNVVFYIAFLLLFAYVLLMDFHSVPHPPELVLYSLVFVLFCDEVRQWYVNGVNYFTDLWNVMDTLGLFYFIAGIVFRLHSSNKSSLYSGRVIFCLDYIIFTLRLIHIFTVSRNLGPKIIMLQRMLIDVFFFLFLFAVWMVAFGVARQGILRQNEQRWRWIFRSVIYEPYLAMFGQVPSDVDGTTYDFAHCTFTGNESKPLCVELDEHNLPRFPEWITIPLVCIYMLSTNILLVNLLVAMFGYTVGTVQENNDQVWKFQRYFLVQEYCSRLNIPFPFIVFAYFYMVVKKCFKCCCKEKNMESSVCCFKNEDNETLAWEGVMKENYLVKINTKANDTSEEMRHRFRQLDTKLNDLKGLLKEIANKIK
Description for oropharynx and esophagus: The terms “icy cold” is used to describe this adverse event in the throat.
Most likely, the compound rapidly distributed and activated cold sensations in the eosophageal lining.

Turning to `CC(C)[C@@H]1CC[C@@H](C)C[C@H]1O` [Menthol, reference compound], the “Threshold, μg (cooling on tongue)” value in data set [1] was 0.25 µg. In addition, the sensory side-effects entry with oropharynx and esophagus (menthol 5 mg in an orally dissolving tablet) is on record as “chest discomfort”.

Take `CCCCCCCP(=O)(C(C)C)C(C)C` [DIPA-1-7, 1-Di(isopropyl)-phosphinoyl-heptane]: the “sensory effects” value in the data set on Oral Cavity and Pharynx (5 mg/mL in cherry-flavored syrup) is “cold, icy cold, and adverse tastes; also recorded: icy pain in the back of the throat”. Besides, the Sensation result in the data set on Oral Cavity and Pharynx (5 mg/mL in cherry-flavored syrup, ~0.8 mL) is “painful cold”. The “duration of unpleasant tastes” value with Oral Cavity and Pharynx (metallic, organic solvent-like, harsh) is listed as “at least 15 min”. Further, it took 820 ± 80 µg/mL (≈ 3.53 mM) to reach a half-maximal effect in [2] (anesthetized rat) (EC50). Besides, the “Relative Potency” value in [2] (suppression of acid-induced swallowing) was found to be 0.11. Further, the “penetration of excised skin” value in data set [3] is on record as “very active in penetrating the excised skin”. For the same compound, the “flux relative to DIPA-1-9” value in [3] (gel, 8 hr) is given as approximately 5 ×. The “decrease in rate of permeation by added standard enhancers” value in data set [3] (propylene glycol-oleyl alcohol (50:50) or Lauroglycol 90 added to gel) was approximately 50%. Moreover, in the data set with oropharynx and esophagus (DIPA-1-9 up to 12 mg per unit), the “icy cold / pain in throat” value is “icy cold”. For the same compound, the “cold in the chest / behind sternum” value with oropharynx and esophagus (in vivo) is reported as “spreads behind the sternum, into the chest”. Moreover, in the data set with oropharynx and esophagus (oral cavity / tongue), the taste entry is “this taste is present”. Also, at cloned hTRPM8 channel (L-menthol = 1.0), the “Relative Potency to L-menthol” value came out at 5.4. Further, the “TRPM8 Relative Potency” value on cloned hTRPM8 channel (Table 8, DIPA-1-7 = 1) was found to be 1. Further, at TRPM8, the “potency for activation of TRPM8 relative to 3,4-6” value is on record as approximately 10 × and the “potency for activation of TRPM8 relative to 3,4-7” value is recorded as approximately 5 ×. Moreover, in data set [4], the solubility is more than 300 mg/mL. Besides, the “shaking after topical application” value with anesthetized rat is “vigorous shaking; also recorded: robust shaking”.

In the case of `COc1ccc2c3c1O[C@H]1[C@@H](O)C=C[C@H]4[C@@H](C2)N(C)CC[C@@]341` [Codeine, reference compound], the cough frequency result in data set [5] was “significantly inhibited cough frequency”.
